In ChEMBL document CHEMBL6121066, “Structure-Activity Relationship Studies of DNA Methyltransferase 1 Monovalent Degraders” (J Med Chem, 2025):
Activity calls are given as the source filed them. The calls are words filed in the database; no cut-off is given here.

How the values were obtained:
HCT-116 = experiment: Downregulation of DNMT1 protein level in human HCT-116 cells at 1 uM incubated for 12 hrs by MS-based global proteomic analysis; assay type: functional, cell-based
[1] = target: Protein arginine N-methyltransferase 6 (Homo sapiens) (UniProt Q96LA8); experiment: Inhibition of human PRMT6 using GST-GAR and SAM as substrate at 1 uM by radioisotope-based MT HotSpot assay relative to control
[2] = target: T1, Histone-lysine N-methyltransferase NSD2 (Homo sapiens) (UniProt O96028); experiment: Inhibition of human NSD2 using nucleosomes and SAM as substrate at 1 uM by radioisotope-based MT HotSpot assay relative to control
T1 sequence (whole entry): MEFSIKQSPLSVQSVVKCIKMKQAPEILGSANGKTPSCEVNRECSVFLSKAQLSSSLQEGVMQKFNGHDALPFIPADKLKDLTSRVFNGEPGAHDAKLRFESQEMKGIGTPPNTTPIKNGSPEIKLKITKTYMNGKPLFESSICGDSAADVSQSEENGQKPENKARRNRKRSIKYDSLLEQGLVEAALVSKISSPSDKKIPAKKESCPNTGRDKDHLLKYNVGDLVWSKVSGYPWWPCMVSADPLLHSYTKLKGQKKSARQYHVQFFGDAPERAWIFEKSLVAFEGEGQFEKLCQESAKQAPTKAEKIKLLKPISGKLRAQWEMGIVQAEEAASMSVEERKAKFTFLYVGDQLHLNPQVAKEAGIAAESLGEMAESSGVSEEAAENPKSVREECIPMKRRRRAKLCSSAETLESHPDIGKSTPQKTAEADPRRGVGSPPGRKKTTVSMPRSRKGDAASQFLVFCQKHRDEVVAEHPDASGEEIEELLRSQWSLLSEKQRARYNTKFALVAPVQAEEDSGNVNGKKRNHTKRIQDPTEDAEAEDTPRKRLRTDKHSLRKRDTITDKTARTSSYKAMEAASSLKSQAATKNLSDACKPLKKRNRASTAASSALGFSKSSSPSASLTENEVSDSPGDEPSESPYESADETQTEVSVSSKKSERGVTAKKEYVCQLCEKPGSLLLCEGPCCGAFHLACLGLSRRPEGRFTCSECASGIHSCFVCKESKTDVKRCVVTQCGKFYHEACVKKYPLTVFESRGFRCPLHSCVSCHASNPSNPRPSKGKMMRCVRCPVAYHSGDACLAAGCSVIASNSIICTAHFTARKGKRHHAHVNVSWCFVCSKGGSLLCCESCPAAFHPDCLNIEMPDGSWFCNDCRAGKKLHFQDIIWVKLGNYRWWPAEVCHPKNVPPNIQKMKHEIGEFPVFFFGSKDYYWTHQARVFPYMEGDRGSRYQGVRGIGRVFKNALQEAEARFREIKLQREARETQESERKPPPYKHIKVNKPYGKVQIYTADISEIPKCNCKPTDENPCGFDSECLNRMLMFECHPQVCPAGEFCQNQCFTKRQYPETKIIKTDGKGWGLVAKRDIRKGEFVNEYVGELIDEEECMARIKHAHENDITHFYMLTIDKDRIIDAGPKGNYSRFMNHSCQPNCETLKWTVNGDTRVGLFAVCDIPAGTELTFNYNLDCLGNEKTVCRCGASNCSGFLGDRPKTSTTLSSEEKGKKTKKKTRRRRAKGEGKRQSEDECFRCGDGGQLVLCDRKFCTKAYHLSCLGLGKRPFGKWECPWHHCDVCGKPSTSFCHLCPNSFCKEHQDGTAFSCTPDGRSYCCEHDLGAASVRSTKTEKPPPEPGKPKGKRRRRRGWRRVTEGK

[3] = target: T2, Histone-lysine N-methyltransferase EHMT1 (Homo sapiens) (UniProt Q9H9B1); experiment: Inhibition of human GLP using Histone H3 and SAM as substrate at 1 uM by radioisotope-based MT HotSpot assay relative to control
T2 sequence (whole entry): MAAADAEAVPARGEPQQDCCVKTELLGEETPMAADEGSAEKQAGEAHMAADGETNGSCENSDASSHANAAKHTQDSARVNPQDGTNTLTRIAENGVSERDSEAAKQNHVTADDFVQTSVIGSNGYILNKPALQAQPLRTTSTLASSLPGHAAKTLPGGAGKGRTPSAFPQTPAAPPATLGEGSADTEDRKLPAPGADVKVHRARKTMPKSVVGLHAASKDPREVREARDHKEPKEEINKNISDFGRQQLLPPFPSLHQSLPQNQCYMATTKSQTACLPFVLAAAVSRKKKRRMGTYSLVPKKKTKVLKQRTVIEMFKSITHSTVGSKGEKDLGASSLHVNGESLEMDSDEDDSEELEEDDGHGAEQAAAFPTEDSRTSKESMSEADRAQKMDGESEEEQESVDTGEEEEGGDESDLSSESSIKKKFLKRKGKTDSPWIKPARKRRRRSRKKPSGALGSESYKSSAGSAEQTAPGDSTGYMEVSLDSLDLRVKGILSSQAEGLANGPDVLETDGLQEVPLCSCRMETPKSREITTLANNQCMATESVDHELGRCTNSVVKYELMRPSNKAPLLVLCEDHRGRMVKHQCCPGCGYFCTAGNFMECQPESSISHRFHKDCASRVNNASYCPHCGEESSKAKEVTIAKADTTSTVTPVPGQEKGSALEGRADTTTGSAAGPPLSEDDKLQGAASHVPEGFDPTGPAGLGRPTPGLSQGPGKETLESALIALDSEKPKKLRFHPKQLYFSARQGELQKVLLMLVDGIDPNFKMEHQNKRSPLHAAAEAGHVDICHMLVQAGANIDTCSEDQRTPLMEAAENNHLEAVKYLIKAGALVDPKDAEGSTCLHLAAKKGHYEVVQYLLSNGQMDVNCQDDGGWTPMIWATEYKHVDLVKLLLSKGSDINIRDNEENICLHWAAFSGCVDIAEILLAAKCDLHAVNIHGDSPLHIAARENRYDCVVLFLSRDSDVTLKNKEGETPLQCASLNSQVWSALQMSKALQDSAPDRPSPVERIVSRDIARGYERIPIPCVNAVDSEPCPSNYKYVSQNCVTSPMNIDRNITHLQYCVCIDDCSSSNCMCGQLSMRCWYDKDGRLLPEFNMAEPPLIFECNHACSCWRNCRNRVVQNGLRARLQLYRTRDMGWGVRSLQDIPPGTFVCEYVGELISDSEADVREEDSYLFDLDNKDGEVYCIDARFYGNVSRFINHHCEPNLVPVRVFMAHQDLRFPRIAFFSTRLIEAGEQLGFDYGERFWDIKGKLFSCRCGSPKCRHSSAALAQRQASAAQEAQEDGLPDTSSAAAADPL

Chain of Protein arginine N-methyltransferase 6 (Homo sapiens) (Q96LA8 whole entry, looked up): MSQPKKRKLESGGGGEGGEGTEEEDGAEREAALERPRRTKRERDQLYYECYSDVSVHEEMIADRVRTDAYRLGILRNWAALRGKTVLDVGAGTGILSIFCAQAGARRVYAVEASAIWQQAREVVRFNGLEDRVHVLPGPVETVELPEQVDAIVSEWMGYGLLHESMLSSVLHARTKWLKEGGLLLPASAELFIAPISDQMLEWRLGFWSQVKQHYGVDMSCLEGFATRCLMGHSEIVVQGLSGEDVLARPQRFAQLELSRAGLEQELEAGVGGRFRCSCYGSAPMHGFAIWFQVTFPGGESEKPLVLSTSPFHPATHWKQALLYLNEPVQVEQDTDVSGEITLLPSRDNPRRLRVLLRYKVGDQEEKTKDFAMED

CCc1c(C#N)c(SC(C(N)=O)c2ccccc2)nc(N(C)CC(=O)NC)c1C#N (centres undefined)
Activity (HCT-116): Active | inhibition [1]: < 20% | inhibition [2]: < 20% | inhibition [3]: < 20%
